Consider 12 compounds from patent US20260097049A1, “C[…] AND METHODS OF USE FOR TREATMENT AND PREVENTION OF CANCER” (BlackStone Therapeutics, LLC, priority 2022, published 2026).

The structures appear in SMILES notation. Where two headings read alike, the source gives them in different places.

What all share (assay type): cell-based
For series [1], the system named is A549 Lung Carcinoma Epithelial Cells (CCL-185 from ATCC). The experiment in a line: Percent viability of lung carcinoma cells. The note with it: for cell viability, comparison in words (figure legends): FIGS. 39, 42, 43; for viability at 1.56 µM / viability at 3.12 µM / viability at 6.25 µM / viability at 12.5 µM / viability at 25 µM / viability at 50 µM: Homo sapiens. How it is done:
GR-X1=H4CBDV, GR-X2=(R)-H4CBD, GR-X3=(S)-H4CBD, GR-X4=HHC.
The IC50 of the hydrogenated cannabivarin, hexahydrocannabidivarin (H4CBDV), (R)-H4CBD, (S)-H4CBD, HHC racemic mixture, and gemcitabine, paclitaxel, and 5-fluorouracil were determined in lung carcinoma cells (A549 Lung Carcinoma Epithelial Cells (CCL-185 from ATCC)) as shown in FIGS. 39-43 and Table 3.

Series [2] can be described thus: Ames test. (In general: In the Ames test, an excess of revertant colonies over the control signals mutagenicity.)
The target in series [3] is hERG (Homo sapiens, UniProt Q12809). Briefly: hERG assay. Here is the method: (§1) At 50 μM, 74.8% of human fibroblasts died and 8% of hepatocytes.
For orientation: The hERG channel carries a current that helps repolarise heart muscle cells.

The subject of series [4] is human fibroblasts. The experiment in a line: Cytotoxicity in human fibroblasts. How it is done: as §1
In series [5] the test system is hepatocytes. The experiment in a line: Cytotoxicity in hepatocytes. The note with it: at 50 μM. Here is the method: as §1
The subject of series [6] is PANC1. Briefly: IC50 in cell lines (Table 4), PANC1. The note with it: Homo sapiens, PANC-1. Here is the method:
(§2) Various compounds, including (R)-H4CBD and (S)-H4CBD, and H4CBDV racemic mixture, were tested for cell killing against various cancer cell lines, including PANC-1, HPAF-II, AsPC-1, and MIA-PaCa2.
(§3) Table 4 summarizes the measured IC50 for specific compounds in the indicated cell types.

Series [7] relates to MIA-PaCa2. The experiment in a line: IC50 in cell lines (Table 4), MIA-PaCa2. The note with it: Homo sapiens, MIA PaCa-2. How it is done:
as §2, §3

For series [8], the system named is HPAFII. Briefly: IC50 in cell lines (Table 4), HPAFII. Particulars: Homo sapiens, HPAF-II. How it is done:
as §2, §3

Series [9] relates to AsPC-1. The experiment in a line: IC50 in cell lines (Table 4), AsPC-1. Particulars: Homo sapiens, ASPC1. Here is the method: as §2, §3
In series [10] the test system is AsPC-1. Briefly: CellTiterGlo cell viability, AsPC-1 cells. Particulars: Homo sapiens, ASPC1, 72 h. How it is done: (§4) The IC50 values for (R)-H4CBD, (S)-H4CBD, H4CBDV racemic mixture, and bortezomib were determined. Compound treatment of cells started one day after seeding with a final DMSO concentration of 0.1% and was performed by nanodrop-dispensing using a Tecan Dispenser. 0.1% DMSO (solvent) and Staurosporine (1,0E-05M) served as high control (100% viability) and low control (0% viability), respectively. For the assays, cells were seeded in white cell culture-treated flat and clear bottom multiwell plates and incubated at 37° C. overnight before compounds were added. After incubation for 72 h at 37° C. at 5% or 10% CO2 dependent on the medium, cell plates were equilibrated to room temperature for one hour, CellTiterGlo reagent (Promega) was added and luminescence was measured approximately an hour later using a luminometer.
(§5) Raw data were converted into percent cell viability relative to the high and low control, which were set to 100% and 0%, respectively. IC50 calculation was performed using GraphPad Prism software with a variable slope sigmoidal response fitting model using 0% viability as bottom constraint and 100% viability as top constraint. IC50 results in PANC-1, MIA-PaCa2, and AsPC-1 cells for (R)-H4CBD, (S)-H4CBD, H4CBDV racemic mixture, and bortezomib are shown in FIGS. 10-12 and Table 2
For orientation: Cellular ATP, detected with luciferase, serves as a proxy for viable cell number.

The test system of series [11] is MiaPaCA-2. The experiment in a line: CellTiterGlo cell viability, MiaPaCA-2 cells. The note with it: Homo sapiens, MIA PaCa-2, 72 h. How it is done:
as §4, §5

Series [12] relates to PANC-1. Briefly: CellTiterGlo cell viability, PANC-1 cells. The note with it: Homo sapiens, 72 h. Here is the method: as §4, §5
Where [13] appears, read: A549, read-out: Percent viability of cells, Mean (%).
[14] abbreviates: A549, agent concentration 1.56 uM, read-out: Percent viability of cells, Mean (%).
[15] abbreviates: A549, agent concentration 3.12 uM, read-out: Percent viability of cells, Mean (%).
[16] abbreviates: A549, agent concentration 6.25 uM, read-out: Percent viability of cells, Mean (%).
Setting [17] is: A549, agent concentration 12.5 uM, read-out: Percent viability of cells, Mean (%).
The mark [18] stands for this setting: A549, agent concentration 25 uM, read-out: Percent viability of cells, Mean (%).
Setting [19] is: A549, agent concentration 50 uM, read-out: Percent viability of cells, Mean (%).

hERG, sequence (Q12809 whole entry): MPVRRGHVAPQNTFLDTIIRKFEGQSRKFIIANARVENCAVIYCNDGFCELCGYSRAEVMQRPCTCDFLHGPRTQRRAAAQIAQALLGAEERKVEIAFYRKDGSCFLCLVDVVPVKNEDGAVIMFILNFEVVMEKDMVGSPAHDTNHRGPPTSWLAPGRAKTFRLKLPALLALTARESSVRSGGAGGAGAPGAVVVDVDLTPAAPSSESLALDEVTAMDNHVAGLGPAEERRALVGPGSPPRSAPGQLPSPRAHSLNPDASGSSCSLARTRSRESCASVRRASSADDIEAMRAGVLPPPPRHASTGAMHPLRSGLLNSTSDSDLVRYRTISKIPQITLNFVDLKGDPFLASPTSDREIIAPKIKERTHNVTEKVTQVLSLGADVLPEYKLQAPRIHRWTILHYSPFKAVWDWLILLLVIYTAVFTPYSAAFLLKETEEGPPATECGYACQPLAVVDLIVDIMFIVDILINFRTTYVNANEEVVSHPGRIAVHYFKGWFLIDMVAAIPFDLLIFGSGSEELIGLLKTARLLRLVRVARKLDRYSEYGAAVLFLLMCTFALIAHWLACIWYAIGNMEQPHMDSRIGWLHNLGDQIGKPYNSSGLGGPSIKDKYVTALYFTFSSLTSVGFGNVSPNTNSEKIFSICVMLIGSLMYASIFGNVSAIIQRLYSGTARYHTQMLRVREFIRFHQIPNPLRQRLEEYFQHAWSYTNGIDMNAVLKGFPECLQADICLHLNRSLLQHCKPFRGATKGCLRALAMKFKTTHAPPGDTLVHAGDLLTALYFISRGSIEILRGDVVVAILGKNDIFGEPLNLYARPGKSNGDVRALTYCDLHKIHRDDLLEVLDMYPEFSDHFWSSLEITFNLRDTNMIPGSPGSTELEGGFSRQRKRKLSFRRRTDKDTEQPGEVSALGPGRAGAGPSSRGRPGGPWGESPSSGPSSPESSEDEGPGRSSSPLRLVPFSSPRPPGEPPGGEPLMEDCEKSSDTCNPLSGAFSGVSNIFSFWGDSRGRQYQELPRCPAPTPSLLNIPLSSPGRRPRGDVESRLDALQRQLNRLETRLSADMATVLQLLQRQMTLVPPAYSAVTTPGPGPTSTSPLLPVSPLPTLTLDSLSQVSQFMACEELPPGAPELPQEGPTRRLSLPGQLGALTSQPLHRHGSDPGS

Usually viability stands for a per cent measure of how many cells are alive, often set against a control. What is called IC50 is the concentration at which inhibition is half-maximal. As for `CCCCCc1cc(O)c2c(c1)OC(C)(C)C1CCC(C)CC21` (racemic) [CCL-113, hexahydrocannabinol], in [1], the “cell viability, comparison in words (figure legends)” value (“cell viability, comparison in words” for short) is recorded as “the only compound that presented higher cell viability from 25 μM”. In [1] (setting [13]), the viability at 1.56 µM was found to be 92.5%, the viability at 3.12 µM was 92.9%, the viability at 6.25 µM came to 95.6% and the viability at 12.5 µM stood at 96.1%. In [1] (setting [13]), the viability at 25 µM was found to be 81.6% and the viability at 50 µM came out at 22.1%. Further, the “cytotoxicity in Ames test” value in series [2] was “did not show cytotoxicity”. Also, in series [3], the “cytotoxicity in hERG assay” value is given as “did not show cytotoxicity”. The same compound came in with an IC50 in series [4] (Homo sapiens, Fibroblast) of 14.4 µM. In series [4] (at 50 μM), the human fibroblasts died was found to be 74.8%. Also, the hepatocytes died in [5] was 8%.

Regarding `CCCc1cc(O)c2c(c1)OC(C)(C)C1CCC(C)CC21` (racemic) [CCL-103, HHCV], the half-maximal inhibitory concentration (IC50) in [6] came to 0.00507 mM; in series [7], 0.0197 mM.

Take `CCCCCc1cc(O)c2c(c1)OC(C)(C)C1CC[C@@H](C)CC21` (stereo partly drawn) [CCL-101, 9R-Hexahydrocannabinol]: the half-maximal inhibitory concentration (IC50) in [6] came out at 0.00908 mM; in [8], 0.00884 mM; in series [7], 0.0127 mM; in series [9], 0.0166 mM.

As to `CCCCCCCc1cc(O)c(C2CC(C)CCC2C(C)C)c(O)c1` (racemic) [CCL-105, H4CBDP], the IC50 in [6] was found to be 0.00255 mM; in series [7], 0.0061 mM.

In the case of `CCCCCc1cc(O)c2c(c1)OC(C)(C)C1CC[C@H](C)CC21` (stereo partly drawn) [CCL-102, 9S-Hexahydrocannabinol], the IC50 worked out at 0.0172 mM in series [6], 0.00702 mM in series [8], 0.0272 mM in series [7] and 0.0115 mM in series [9].

Consider `CCCCCc1cc(O)c(C2C[C@@H](C)CCC2C(C)C)c(O)c1` (some centres unmarked) [S- H4CBDV], for which, in series [1] (setting [14]), the viability at 1.56 µM stood at 94.2%. Further, in [1] (setting [15]), the viability at 3.12 µM was 99.6%. Also, the viability at 6.25 µM in [1] (setting [16]) turned out to be 94.1%. Further, the viability at 12.5 µM in series [1] (setting [17]) turned out to be 81.3%. In addition, the viability at 25 µM in [1] (setting [18]) stood at 13.8%. Moreover, the viability at 50 µM in series [1] (setting [19]) was 1.53%.

As to `CCCCCc1cc(O)c(C2C[C@H](C)CCC2C(C)C)c(O)c1` (stereo partly drawn) [CCL-111, (R)-H4CBD], the 50% inhibitory concentration (IC50) in series [10] came out at 4.85 µM; in [11], 3.24 µM; in series [12] it was 5.29 µM.

In the case of `CC(=O)O[C@H]1C(=O)[C@@]2(C)[C@H]([C@H](OC(=O)c3ccccc3)[C@]3(O)C[C@H](OC(=O)[C@H](O)[C@@H](NC(=O)c4ccccc4)c4ccccc4)C(C)=C1C3(C)C)[C@]1(OC(C)=O)CO[C@@H]1C[C@@H]2O` [paclitaxel, reference compound], the “cell viability, comparison in words” value in series [1] is listed as “higher cytotoxicity at a lower concentration than 5-flurouracil”.

For `CC(C)C[C@H](NC(=O)[C@H](Cc1ccccc1)NC(=O)c1cnccn1)B(O)O` [Bortezomib, reference compound], the concentration for half-maximal inhibition (IC50) turned out to be 0.0334 µM in [10], 0.0149 µM in [11] and 0.0134 µM in series [12].

On to `CCCCCc1cc(O)c(C2C[C@@H](C)CCC2C(C)C)c(O)c1` (stereo partly drawn) [CCL-112, (S)-H4CBD], for which the figures for the IC50 in [10], in [11] and in series [12] were 6.17 µM, 4.77 µM and 8.02 µM, respectively.

Take `CCCCCc1cc(O)c(C2C[C@H](C)CCC2C(C)C)c(O)c1` (some centres unmarked) [R- H4CBDV]: in [1] (setting [14]), the viability at 1.56 µM was found to be 92.3%. Further, the viability at 3.12 µM in series [1] (setting [15]) was determined as 86.7%. In series [1] (setting [16]), the viability at 6.25 µM was 86%. For the same compound, the viability at 12.5 µM in series [1] (setting [17]) turned out to be 45%. Besides, the viability at 25 µM in [1] (setting [18]) was found to be 14%. In series [1] (setting [19]), the viability at 50 µM is 4.18%.

As for `O=c1[nH]cc(F)c(=O)[nH]1` [5-fluorouracil, reference compound], the “cell viability, comparison in words” value in series [1] was “presented the best cell viability when compared to the other two drugs, gemcitabine and paclitaxel”.
